This note sets out measurements from ChEMBL document CHEMBL1201862, “PubChem BioAssay data set” (2004).

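These data come from cells grown in 96-well plates and exposed to compound for 48 hours at five concentrations. GI50 marks 50% less growth.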 The source made the active and inactive calls. Rule as the data show it: active = GI50 up to about 1.1 µM and inactive = higher.

Holding throughout (test): NCI tumour cell line growth inhibition, 48 h
Experiment [1] relates to LOX IMVI.
Experiment [2] deals with SF-295.
Experiment [3] relates to A549.
Experiment [4] relates to HT-29.
Experiment [5] relates to OVCAR-3.
Experiment [6] concerns RXF 393.
For experiment [7], the system named is SK-MEL-28.
For experiment [8], the system named is KM12.
Experiment [9] deals with NCI-H23.
In experiment [10] the test system is SNB-75.
The test system of experiment [11] is OVCAR-5.
The test system of experiment [12] is NCI-H460.
Experiment [13] deals with Malme-3M.
The subject of experiment [14] is K562.
Experiment [15] concerns CCRF-CEM.
The subject of experiment [16] is SK-OV-3.
In experiment [17] the test system is HL-60.

For the molecule `CCOC(=O)[C@H]1Nc2ccc(Cl)cc2[C@H]2CCC[C@@H]12`, the GI50 was > 100 µM (inactive) in experiment [1]; 55.3 µM (inactive) in [2]; 88.3 µM (inactive) in [3]; 36.7 µM (inactive) in [4]; 61.4 µM (inactive) in [5]; 17.9 µM (inactive) in experiment [6]. Further, the GI50 was > 100 µM (inactive) in experiment [7]; > 100 µM (inactive) in [8]; > 100 µM (inactive) in [9]; 72.3 µM (inactive) in experiment [10]; 63.5 µM (inactive) in [11]; > 100 µM (inactive) in [12]. Also, the GI50 in [13] and in [14] was > 100 µM (inactive) in each case.
`O=S1(=O)CS(=O)(=O)OCCCCCO1`: the GI50 in experiment [15], in [1], in experiment [3], in [4], in experiment [6] and in experiment [7] was > 100 µM (inactive) each time. Further, the GI50 in experiment [8], in experiment [9], in [10], in experiment [11], in [12] and in experiment [16] was > 100 µM (inactive) in each case. In addition, the GI50 in experiment [13] and in experiment [14] was > 100 µM (inactive) throughout.
As for `CN1C(=O)c2cccc3c([N+](=O)[O-])ccc(c23)C1=O`, the GI50 in [15] is 7.24 µM (inactive); in [1] it was 6.12 µM (inactive); in [2], 14.5 µM (inactive); in experiment [3], 12.7 µM (inactive); in experiment [5], 3.19 µM (inactive); in experiment [6], 3.1 µM (inactive). In addition, the GI50 in [7] was 18.8 µM (inactive); in [8] it was 4.94 µM (inactive); in experiment [9], 11.9 µM (inactive); in experiment [10], 12.3 µM (inactive); in experiment [11], 3.5 µM (inactive); in experiment [12], 2.56 µM (inactive). Further, the GI50 in experiment [16] is 14.7 µM (inactive); in [13], 16.2 µM (inactive); in experiment [14] it was 4.1 µM (inactive).
Take `Cc1ccc(/C=C(\C#N)c2ccccc2)cc1`: the GI50 in [15], in experiment [1], in experiment [2], in experiment [4], in [5] and in [6] was > 100 µM (inactive) in each case. For the same molecule, the GI50 in [7], in experiment [8], in [9], in experiment [10], in experiment [11] and in experiment [12] was > 100 µM (inactive) throughout. The GI50 in experiment [16] and in [14] was > 100 µM (inactive) throughout.
With `Nc1ncnc2c1ncn2C1OC(CSC(F)F)C(O)C1O` (centres undefined), the GI50 in [15], in experiment [17], in experiment [1], in experiment [2], in [3] and in experiment [4] was > 100 µM (inactive) throughout. The GI50 in [5], in [7], in [8], in experiment [9], in [10] and in [11] was > 100 µM (inactive) in each case. The GI50 in experiment [12], in [16], in experiment [13] and in experiment [14] was > 100 µM (inactive) each time.
With `COc1ccc(CNc2cnc3cc(N)ccc3n2)cc1OC`, the GI50 in experiment [15], in [17], in experiment [1], in experiment [2], in [3] and in experiment [4] was > 100 µM (inactive) each time. Further, the GI50 was > 100 µM (inactive) in experiment [5]; > 100 µM (inactive) in [7]; > 100 µM (inactive) in [8]; > 100 µM (inactive) in [10]; > 10 µM (inactive) in experiment [11]; > 100 µM (inactive) in experiment [12]. For the same molecule, the GI50 in experiment [13] and in [14] was > 100 µM (inactive) each time.
On to `C#CCSc1nc(N)c2ncn(C3OC(COP(=O)(O)O)C(O)C3O)c2n1` (centres undefined), for which the GI50 in experiment [15], in experiment [17], in experiment [1], in experiment [2], in [3] and in experiment [4] was > 239 µM (inactive) in each case. Further, the GI50 in experiment [5], in experiment [7], in experiment [8], in experiment [9], in experiment [10] and in experiment [11] was > 239 µM (inactive) in each case. In addition, the GI50 in experiment [12], in experiment [16], in experiment [13] and in [14] was > 239 µM (inactive) throughout.
On to `CC(C)N(C(=O)C12C3C4C1C1C4(C#N)C3C12C(=O)O)C(C)C` (centres undefined), for which the GI50 in experiment [15] is > 48.4 µM (inactive); in experiment [17] it was > 45.5 µM (inactive); in experiment [1], > 93.8 µM (inactive); in experiment [2], > 100 µM (inactive); in experiment [3], 97.9 µM (inactive); in experiment [4], > 100 µM (inactive). In addition, the GI50 in [5], in [7], in [8], in experiment [9], in experiment [10] and in experiment [11] was > 100 µM (inactive) each time. The GI50 was > 67.3 µM (inactive) in experiment [12], > 100 µM (inactive) in experiment [16], > 100 µM (inactive) in [13] and > 69.8 µM (inactive) in experiment [14].
On to `Cc1c2cc[n+](C)cc2c(C)c2c1[nH]c1ccc(Oc3ccccc3)cc12`, for which the GI50 is 1.19 µM (inactive) in [15]; 2.09 µM (inactive) in [1]; 0.311 µM (active) in experiment [2]; 0.324 µM (active) in experiment [3]; 0.764 µM (active) in experiment [4]; 1.6 µM (inactive) in [5]. Besides, the GI50 in experiment [7] was 3.28 µM (inactive); in experiment [8], 0.59 µM (active); in experiment [9], 0.515 µM (active); in [10], 0.44 µM (active); in [11], 3.31 µM (inactive); in experiment [16], 1.39 µM (inactive). Further, the figures for the GI50 in experiment [13] and in experiment [14] were 1.76 µM (inactive) and 0.383 µM (active), respectively.
For the molecule `COc1cc2c3c(c1OC)C(=O)C=C3N(S(=O)(=O)c1ccc(C)cc1)CC2`, the GI50 in experiment [15] was > 100 µM (inactive); in experiment [17] it was > 100 µM (inactive); in experiment [1], > 100 µM (inactive); in [2], 77.8 µM (inactive); in experiment [3], > 100 µM (inactive); in experiment [4] it was > 100 µM (inactive). The GI50 in experiment [5] was > 100 µM (inactive); in experiment [7] it was > 100 µM (inactive); in experiment [8] it was > 100 µM (inactive); in [9], > 100 µM (inactive); in experiment [10] it was 46.9 µM (inactive); in experiment [11], > 100 µM (inactive). Besides, the GI50 in experiment [12], in experiment [16], in experiment [13] and in experiment [14] was > 100 µM (inactive) each time.
